Data taken from patent US9212139B2, “Aryl substituted indoles and their use as blockers of sodium channels” (Purdue Pharma, L.P., priority 2010, dated 2015).

What follows are compounds tested against human Nav1.7 (Homo sapiens (Human), UniProt Q15858) (assay: FLIPR or FLIPR TETRA sodium dye assay with KCl and test article pre-incubation). Conditions: read-out: FLIPR Nav1.7 IC50 (μM) ± SEM.
Type: cell-based
Text: For dominant selection of the Nav1.7-expressing clones, the expression plasmid co-expressed the neomycin resistance gene. […] Recombinant beta and gamma subunits were not introduced into this cell line. Additional cell lines expressing recombinant Nav1.7 cloned from other species can also be used, alone or in combination with various beta subunits, gamma subunits or chaperones.
Cell maintenance: Unless otherwise noted, cell culture reagents were purchased from Mediatech of Herndon, Va. The recombinant Nav1.7/HEK293 cells were routinely cultured in growth medium consisting of Dulbecco's […] containing 10% fetal bovine serum (FBS, Hyclone, Thermo Fisher Scientific, Logan, Utah), 100 U/mL penicillin, […], 2-4 mM L-glutamine, and […]. For natural, non-recombinant cell lines, the selective antibiotic was omitted, and additional media formulations can be applied as needed.
The intensity of this emission, but not the wavelength range, is increased when the dye is exposed to Na^+ ions, which it can bind with partial selectivity. Cells expressing Nav1.7 or other sodium channels were loaded with the CoroNa™ Green dye immediately in advance of the fluorescence assay, and then, after agonist stimulation, the mobilization of Na^+ ions was detected as the Na^+ ions flowed from the extracellular fluid into the cytoplasm through the activated sodium channel pores. The dye was stored in the dark as a lyophilized powder, and then an aliquot was dissolved immediately before the cell loading procedure, according to the instructions of the manufacturer to a stock concentration of 10 mM in DMSO. It was then diluted in the assay buffer to a 4× concentrated working solution, so that the final concentration of dye in the cell loading buffer was 5 μM.
These scorpion toxins inhibit the fast inactivation of their cognate target channels. Stock solutions of the agonists were prepared to 40 mM in DMSO (veratridine) and 1 mg/mL in dH2O (scorpion venom), and then diluted to make a 4× or 2× stock (depending on the particular assay) in assay buffer, the final concentration being 100 μM (veratridine) and 10 μg/mL (scorpion venom). Both of the agonists were purchased from Sigma Aldrich, St. Louis, Mo.
Test Compounds: Test compounds were dissolved in DMSO to yield 10 mM stock solutions. […] If a particular test article appeared to be especially potent, then the concentration curve was adjusted, e.g., to 10-fold lower concentrations, in order to perform the dose-response in a more relevant concentration range. Compound dilutions were added during the dye-loading and pre-stimulation step, and then again during the fluorescence assay, early in the kinetic read.
Data Analysis: The data were analyzed according to methods known to those skilled in the art or using the GraphPad® Prism 4.0 Program (available from GraphPad Software, San Diego, Calif.) to determine the IC50 value for the test article. At least one standard reference compound was evaluated during each experiment.
FLIPR® or FLIPR^TETRA® sodium dye assay with KCl and test article pre-incubation: Cells were prepared by plating the recombinant HEK293 cells or other host cells expressing either recombinant or non-recombinant, native, Nav1.7 alpha subunit, alone or in combination with various beta and gamma subunits at a density of ˜40,000 cells/well into a 96-well black, clear-bottom, PDL-coated plate. The assay can be adapted to 384-well or 1,536-well format, if desired, using proportionately less cells and media. […] For counter-screens of other voltage-gated sodium channels, the procedure was very similar, though optimal densities of cells, media and subsequent assay components can be fine-tuned for the particular cell line or isoform.

Sequence of human Nav1.7 (Q15858 other isoform, or with tags, fused parts or gaps): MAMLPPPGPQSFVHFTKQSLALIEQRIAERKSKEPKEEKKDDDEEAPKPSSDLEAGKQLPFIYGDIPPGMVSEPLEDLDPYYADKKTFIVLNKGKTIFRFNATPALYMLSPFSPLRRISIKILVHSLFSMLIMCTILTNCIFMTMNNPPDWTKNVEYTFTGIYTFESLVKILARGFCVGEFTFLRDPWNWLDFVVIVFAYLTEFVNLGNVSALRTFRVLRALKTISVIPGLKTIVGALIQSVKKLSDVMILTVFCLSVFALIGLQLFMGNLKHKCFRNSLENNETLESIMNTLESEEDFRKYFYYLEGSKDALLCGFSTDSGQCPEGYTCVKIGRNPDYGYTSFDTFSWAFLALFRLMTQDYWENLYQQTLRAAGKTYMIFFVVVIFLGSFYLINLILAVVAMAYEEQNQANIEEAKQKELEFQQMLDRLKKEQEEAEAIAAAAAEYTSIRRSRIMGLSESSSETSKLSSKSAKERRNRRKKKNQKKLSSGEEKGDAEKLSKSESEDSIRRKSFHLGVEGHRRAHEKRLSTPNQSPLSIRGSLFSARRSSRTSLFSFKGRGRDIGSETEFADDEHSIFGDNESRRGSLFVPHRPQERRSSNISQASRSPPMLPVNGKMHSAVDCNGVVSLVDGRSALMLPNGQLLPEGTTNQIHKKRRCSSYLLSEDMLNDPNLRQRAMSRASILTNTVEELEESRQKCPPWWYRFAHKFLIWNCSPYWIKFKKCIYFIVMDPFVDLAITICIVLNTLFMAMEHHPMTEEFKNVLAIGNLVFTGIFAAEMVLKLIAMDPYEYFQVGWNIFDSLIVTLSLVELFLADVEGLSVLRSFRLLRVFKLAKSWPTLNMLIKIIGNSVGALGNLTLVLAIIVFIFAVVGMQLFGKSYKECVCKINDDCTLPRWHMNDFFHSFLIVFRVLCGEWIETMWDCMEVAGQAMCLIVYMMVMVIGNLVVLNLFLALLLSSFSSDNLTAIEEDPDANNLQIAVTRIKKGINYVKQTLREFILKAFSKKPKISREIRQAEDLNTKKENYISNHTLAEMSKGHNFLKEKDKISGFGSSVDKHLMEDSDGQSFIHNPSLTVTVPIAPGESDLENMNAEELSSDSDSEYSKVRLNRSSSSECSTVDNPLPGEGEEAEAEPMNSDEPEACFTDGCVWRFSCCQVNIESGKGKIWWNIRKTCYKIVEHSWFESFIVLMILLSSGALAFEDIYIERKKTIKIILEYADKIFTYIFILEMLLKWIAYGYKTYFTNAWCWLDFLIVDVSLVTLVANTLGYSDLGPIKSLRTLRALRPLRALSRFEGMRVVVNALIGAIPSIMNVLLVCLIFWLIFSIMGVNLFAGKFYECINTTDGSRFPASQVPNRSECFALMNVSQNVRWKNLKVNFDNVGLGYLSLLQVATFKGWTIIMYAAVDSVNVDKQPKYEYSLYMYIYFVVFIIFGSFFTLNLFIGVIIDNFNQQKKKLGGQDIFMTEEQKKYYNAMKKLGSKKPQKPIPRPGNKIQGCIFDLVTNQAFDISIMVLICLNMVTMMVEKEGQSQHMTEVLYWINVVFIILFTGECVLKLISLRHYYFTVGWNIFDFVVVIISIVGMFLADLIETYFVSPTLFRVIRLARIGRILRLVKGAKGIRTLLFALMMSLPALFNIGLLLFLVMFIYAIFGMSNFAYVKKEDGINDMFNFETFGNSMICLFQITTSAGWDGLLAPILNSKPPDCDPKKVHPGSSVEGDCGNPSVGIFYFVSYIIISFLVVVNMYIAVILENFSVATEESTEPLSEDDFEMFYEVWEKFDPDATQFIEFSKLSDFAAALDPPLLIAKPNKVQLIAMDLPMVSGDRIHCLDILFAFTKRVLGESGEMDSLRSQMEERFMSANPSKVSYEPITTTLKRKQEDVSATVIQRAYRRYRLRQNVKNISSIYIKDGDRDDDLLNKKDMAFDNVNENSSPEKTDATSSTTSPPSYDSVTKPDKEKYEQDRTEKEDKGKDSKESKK

Row | Compound | IC50
1 | N#Cc1cc(Oc2ccc(-n3cc(C(O)CO)c4ccccc43)cc2)ccc1C(F)(F)F (centres unmarked) [Compound 51, 5-{4-[3-(1,2-Dihydroxyethyl)-1H-indol-1-yl]phenoxy}-2-(trifluoromethyl)benzonitrile] | 0.26 ± 0.009 µM
2 | N#Cc1ccc(Oc2ccc(-n3cc(C[C@H](O)CO)c4ccccc43)cc2)cc1 [Compound 76, (S)-4-(4-(3-(2,3-Dihydroxypropyl)-1H-indol-1-yl)phenoxy)benzonitrile] | 0.501 ± 0.089 µM
3 | N#Cc1ccc(Oc2ccc(-n3cc(C[C@@H](O)CO)c4ccccc43)cc2)cc1 [Compound 77, (R)-4-(4-(3-(2,3-Dihydroxypropyl)-1H-indol-1-yl)phenoxy)benzonitrile] | 0.48 ± 0.087 µM
4 | NC(=O)c1nn(-c2ccc(Oc3ccccc3)cc2)c2ccccc12 [Compound 145, 1-(4-Phenoxyphenyl)-1H-indazole-3-carboxamide] | 0.326 ± 0.043 µM
5 | O=C(NO)c1nn(-c2ccc(Oc3ccccc3)cc2)c2ccccc12 [Compound 146, N-Hydroxy-1-(4-phenoxyphenyl)-1H-indazole-3-carboxamide] | 8.07 ± 0.484 µM
6 | CCN(CC)CCn1ccc2cc(-c3ccc(Oc4ccc(F)cc4)cc3)ccc21 [Compound 177, N,N-Diethyl-2-(5-(4-(4-fluorophenoxy)phenyl)-1H-indol-1-yl)ethanamine] | 0.895 ± 0.154 µM
7 | CCN(CC)CCn1cc(C(=O)C(N)=O)c2cc(-c3ccc(Oc4ccc(F)cc4)cc3)ccc21 [Compound 178, 2-(1-(2-Diethylamino)ethyl-5-(4-(4-fluorophenoxy)phenyl)-1H-indol-3-yl)-2-oxoacetamide] | 1.03 ± 0.076 µM
8 | N#Cc1ccc(Oc2ccc(-n3cc(C(O)(C(N)=O)C(F)(F)F)c4ccccc43)cc2)cc1C(F)(F)F (centres unmarked) [Compound 192, 2-(1-(4-(4-Cyano-3-(trifluoromethyl)phenoxy)phenyl)-1H-indol-3-yl)-3,3,3-trifluoro-2-hydroxypropanamide] | 0.475 ± 0.065 µM

Same assay, conditions: sodium dye assay with KCl; recombinant human Nav1.7 in HEK293 cells; value ± SEM

Row | Compound | IC50
9 | CCOC(=O)C(N)Cc1c[nH]c2ccc(-c3ccc(Oc4ccccc4)cc3)cc12 (centres unmarked) [Compound 7, 2-Amino-3-[5-(4-phenoxyphenyl)-1H-indol-3-yl]propionic acid ethyl ester] | 0.481 ± 0.042 µM
10 | NC(Cc1c[nH]c2ccc(-c3ccc(Oc4ccccc4)cc3)cc12)C(=O)O (centres unmarked) [Compound 9, 2-Amino-3-[5-(4-phenoxyphenyl)-1H-indol-3-yl]propionic acid] | > 20 µM
11 | NC(=O)C(N)Cc1c[nH]c2cc(-c3ccc(Oc4ccccc4)cc3)ccc12 (centres unmarked) [Compound 15, 2-Amino-3-[6-(4-phenoxyphenyl)-1H-indol-3-yl]propionamide] | 2.05 ± 0.094 µM
12 | CCOC(=O)C(Cc1c[nH]c2cc(-c3ccc(Oc4ccccc4)cc3)ccc12)NC(=O)OC(C)(C)C (centres unmarked) [Compound 16, 2-tert-Butoxycarbonylamino-3-[6-(4-phenoxyphenyl)-1H-indol-3-yl]-propionic acid ethyl ester] | 2.52 ± 0.663 µM
13 | CC(C)(C)OC(=O)NC(Cc1c[nH]c2cc(-c3ccc(Oc4ccccc4)cc3)ccc12)C(=O)O (centres unmarked) [Compound 17, 2-tert-Butoxycarbonylamino-3-[6-(4-phenoxyphenyl)-1H-indol-3-yl]-propionic acid] | 1.93 ± 0.228 µM
14 | NC(=O)C(N)Cc1c(-c2ccc(Oc3ccccc3)cc2)[nH]c2ccccc12 (centres unmarked) [Compound 28, 2-Amino-3-[2-(4-phenoxyphenyl)-1H-indol-3-yl]propionamide] | 0.24 ± 0.023 µM
15 | NC(Cc1cn(-c2ccc(Oc3ccccc3)cc2)c2ccccc12)C(=O)NCCO (centres unmarked) [Compound 37, 2-Amino-N-(2-hydroxyethyl)-3-[1-(4-phenoxyphenyl)-1H-indol-3-yl]-propionamide] | 0.364 ± 0.112 µM
16 | CS(=O)(=O)NC(Cc1cn(-c2ccc(Oc3ccccc3)cc2)c2ccccc12)C(N)=O (centres unmarked) [Compound 39, 2-Methanesulfonylamino-3-[1-(4-phenoxyphenyl)-1H-indol-3-yl]propionamide] | 1.01 ± 0.162 µM
17 | OC[C@@H](O)Cc1cn(-c2ccc(Oc3ccc(C(F)(F)F)cc3)cc2)c2ccccc12 [Compound 80, (S)-3-(1-(4-(4-(Trifluoromethyl)phenoxy)phenyl)-1H-indol-3-yl)propane-1,2-diol] | 0.524 ± 0.085 µM
18 | OC[C@@H](O)Cc1cn(-c2ccc(Oc3ccc(C(F)(F)F)cn3)cc2)c2ccccc12 [Compound 83, (S)-3-(1-(4-((5-(Trifluoromethyl)pyridin-2-yl)oxy)phenyl)-1H-indol-3-yl)propane-1,2-diol] | 0.257 ± 0.067 µM
19 | CN(c1ccc(F)cc1)S(=O)(=O)c1ccc(-n2cc(C[C@H](O)CO)c3ccccc32)cc1 [Compound 90, (S)-4-(3-(2,3-Dihydroxypropyl)-1H-indol-1-yl)-N-(4-fluorophenyl)-N-methylbenzenesulfonamide] | 0.865 ± 0.058 µM
20 | O=S(=O)(Nc1ccc(F)cc1)c1ccc(-n2cc(C[C@H](O)CO)c3ccccc32)cc1 [Compound 92, (S)-4-(3-(2,3-Dihydroxypropyl)-1H-indol-1-yl)-N-(4-fluorophenyl)benzenesulfonamide] | 1.89 ± 0.164 µM
21 | N#Cc1ccc2c(C[C@H](O)CO)cn(-c3ccc(Oc4ccc(F)cc4)cc3)c2c1 [Compound 105, (S)-3-(2,3-Dihydroxypropyl)-1-(4-(4-fluorophenoxy)phenyl)-1H-indole-6-carbonitrile] | 1.65 ± 0.438 µM
22 | N#Cc1ccc2c(c1)c(C[C@H](O)CO)cn2-c1ccc(Oc2ccc(F)cc2)cc1 [Compound 110, (S)-3-(2,3-Dihydroxypropyl)-1-(4-(4-fluorophenoxy)phenyl)-1H-indole-5-carbonitrile] | 2.45 ± 0.542 µM
23 | N#Cc1cccc2c(C[C@H](O)CO)cn(-c3ccc(Oc4ccc(F)cc4)cc3)c12 [Compound 115, (S)-3-(2,3-Dihydroxypropyl)-1-(4-(4-fluorophenoxy)phenyl)-1H-indole-7-carbonitrile] | 0.474 ± 0.133 µM
24 | N#Cc1cccc2c1c(C[C@H](O)CO)cn2-c1ccc(Oc2ccc(F)cc2)cc1 [Compound 120, (S)-3-(2,3-Dihydroxypropyl)-1-(4-(4-fluorophenoxy)phenyl)-1H-indole-4-carbonitrile] | 0.262 ± 0.066 µM
25 | NC(=O)c1ccc2c(C[C@H](O)CO)cn(-c3ccc(Oc4ccc(F)cc4)cc3)c2c1 [Compound 123, (S)-3-(2,3-Dihydroxypropyl)-1-(4-(4-fluorophenoxy)phenyl)-1H-indole-6-carboxamide] | 4.92 ± 0.822 µM
26 | O=C(O)c1cccc2c1c(C[C@H](O)CO)cn2-c1ccc(Oc2ccc(F)cc2)cc1 [Compound 129, (S)-3-(2,3-Dihydroxypropyl)-1-(4-(4-fluorophenoxy)phenyl)-1H-indole-4-carboxylic acid] | 3.33 ± 0.495 µM
27 | N#Cc1cc(Oc2ccc(-n3cc(C[C@@H](O)CO)c4c(C(O)CO)cccc43)cc2)ccc1C(F)(F)F (stereo partly drawn) [Compound 139, 5-(4-(4-(1,2-Dihydroxyethyl)-3-((R)-2,3-dihydroxypropyl)-1H-indol-1-yl)phenoxy)-2-(trifluoromethyl)benzonitrile] | > 20 µM
28 | N#Cc1cc(Oc2ccc(-n3cc(C[C@H](O)CO)c4c(C(O)CO)cccc43)cc2)ccc1C(F)(F)F (stereo partly drawn) [Compound 141, 5-(4-(4-(1,2-Dihydroxyethyl)-3-((S)-2,3-dihydroxypropyl)-1H-indol-1-yl)phenoxy)-2-(trifluoromethyl)benzonitrile] | 1.97 ± 0.494 µM
29 | OCc1cn(-c2ccc(Oc3ccc(C(F)(F)F)cc3)cc2)c2cnccc12 [Compound 164, (1-(4-(4-(Trifluoromethyl)phenoxy)phenyl)-1H-pyrrolo[2,3-c]pyridin-3-yl)methanol] | 0.345 ± 0.027 µM
30 | N#Cc1ccc(Oc2ccc(-n3cc(C[C@H](O)CO)c4ccncc43)cc2)cc1 [Compound 170] | 1.38 ± 0.542 µM
31 | CCN(CC)CCn1cc(C[C@H](O)CO)c2cc(-c3ccc(Oc4ccc(F)cc4)cc3)ccc21 [Compound 182] | 1.06 ± 0.026 µM
32 | NC(=O)Cn1cc(C[C@H](O)CO)c2cc(-c3ccc(Oc4ccc(F)cc4)cc3)ccc21 [Compound 186, (S)-2-(3-(2,3-Dihydroxypropyl)-5-(4-(4-fluorophenoxy)phenyl)-1H-indol-1-yl)acetamide] | 0.717 ± 0.042 µM
